Values quoted from earlier work in patent US20100105761A1, “TREATMENT OF PAIN THROUGH EXPRESSION OF OPIOID RECEPTORS” (priority 2006, published 2010).
Read-outs that look alike come from different tables or passages of the source.

What was measured:
[1] = tested on: TMJ; details: placed into the TMJ of cats
[2] = tested on: μ receptor
[3] = tested on: TMJ area; details: rats, dose dependent
[4] = tested on: masseter muscle; details: rat
[5] = tested on: masseter muscle; details: human
[6] = tested on: μ1-site
[7] = tested on: μ receptor; details: in vivo

NCCc1c[nH]cn1 [histamine]
EMG activity in the temporal, digastric and genioglossus muscles [1]: increase in electromyographic (EMG) activity

CC(=O)Oc1ccc2c3c1O[C@H]1[C@@H](OC(C)=O)C=C[C@H]4[C@@H](C2)N(C)CC[C@@]341 [heroin]
antinociception in mice of the CXBX strain ([2]; CXBX strain): potently antinociceptive | antinociception in MOR-1 knockout mice, exon-1 disrupted ([2]; MOR-1 knockout, exon-1): still produce antinociception

[Cl-].[K+] [potassium chloride]
EMG activity in the temporal, digastric and genioglossus muscles [1]: increase in electromyographic (EMG) activity

N[C@@H](CCC(=O)O)C(=O)O [glutamate]
EMG activity after injection into the TMJ area [3]: induced a prolonged increase in EMG activity | masseter muscle activity, female versus male [4]: evoked higher masseter muscle activity in female than males | masseter muscle activity, female versus male [5]: evoked higher masseter muscle activity in female than males

C=CCN1CC[C@]23c4c5ccc(O)c4O[C@H]2/C(=N\N)CC[C@@]3(O)[C@H]1C5 [naloxazone]
effect on binding of radioligands to the μ1-site [6]: abolish the binding of radioligands | blockade of morphine-induced antinociception [7]: selectively blocked | blockade of morphine-induced respiratory depression [7]: did not block | blockade of the induction of morphine dependence [7]: did not block

C=CCN1CC[C@]23c4c5ccc(O)c4O[C@H]2/C(=N/N=C2\CC[C@@]4(O)[C@H]6Cc7ccc(O)c8c7[C@@]4(CCN6CC=C)[C@H]2O8)CC[C@@]3(O)[C@H]1C5 [naloxonazine]
effect on binding of radioligands to the μ1-site [6]: abolish the binding of radioligands
